The results in this text go back to ChEMBL document CHEMBL4765344, “Expanding the anticancer potential of 1,2,3-triazoles via simultaneously targeting Cyclooxygenase-2, 15-lipoxygenase and tumor-associated carbonic anhydrases” (Eur J Med Chem, 2020).

Data set [1] deals with A549. Nature of the data set: Induction of apoptosis in human A549 cells assessed as late apoptotic cells at IC50 measured after 24 hrs by annexin V-FITC staining based flow cytometry (reference value: […]). The data set is classed as functional. On the technique in general: In flow cytometry, cells or beads pass a laser one at a time.
For data set [2], the target named is T1, Prostaglandin G/H synthase 1 (Ovis aries, UniProt P05979).
T1 sequence (P05979 whole entry): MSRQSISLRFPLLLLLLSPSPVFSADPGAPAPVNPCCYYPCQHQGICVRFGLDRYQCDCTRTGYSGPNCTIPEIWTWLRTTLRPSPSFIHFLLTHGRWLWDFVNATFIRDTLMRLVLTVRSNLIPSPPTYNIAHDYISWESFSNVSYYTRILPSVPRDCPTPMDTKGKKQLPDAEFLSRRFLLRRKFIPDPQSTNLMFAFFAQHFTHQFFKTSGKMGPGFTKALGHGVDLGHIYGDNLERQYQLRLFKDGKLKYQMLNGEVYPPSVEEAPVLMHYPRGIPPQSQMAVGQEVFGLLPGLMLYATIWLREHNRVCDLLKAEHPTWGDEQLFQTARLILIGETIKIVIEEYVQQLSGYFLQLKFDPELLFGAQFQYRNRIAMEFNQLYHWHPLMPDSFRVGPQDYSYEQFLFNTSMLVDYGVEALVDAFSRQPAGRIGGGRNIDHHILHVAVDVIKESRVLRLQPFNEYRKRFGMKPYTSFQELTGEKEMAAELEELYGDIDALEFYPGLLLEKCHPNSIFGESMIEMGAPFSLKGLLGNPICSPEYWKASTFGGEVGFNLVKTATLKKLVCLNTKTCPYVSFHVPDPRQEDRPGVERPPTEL
Nature of the data set: Inhibition of ovine COX1 by colorimetric analysis.

Data set [3] deals with A549. Nature of the data set: Induction of apoptosis in human A549 cells assessed as caspase-9 expression at IC50 by ELISA (reference value: […] +/- […] ng/ml). The data set is classed as functional. For orientation: In an ELISA, binding on a coated surface is turned into a signal by an enzyme label.
Data set [4] deals with A549. Nature of the data set: Induction of cell cycle arrest in human A549 cells assessed as accumulation at pre-G1 phase at IC50 measured after 24 hrs by propidium iodide/RNase staining based flow cytometry (reference value: 1.93%). The data set is classed as functional.
Another data set concerns the target Carbonic anhydrase 2 (Homo sapiens, UniProt P00918). Nature of the data set: Inhibition of human CA2 by stopped-flow carbon dioxide hydration assay.
The target in the next data set is Carbonic anhydrase 1 (Homo sapiens, UniProt P00915). Nature of the data set: Inhibition of human CA1 by stopped-flow carbon dioxide hydration assay.
Chain of Carbonic anhydrase 1 (P00915 whole entry): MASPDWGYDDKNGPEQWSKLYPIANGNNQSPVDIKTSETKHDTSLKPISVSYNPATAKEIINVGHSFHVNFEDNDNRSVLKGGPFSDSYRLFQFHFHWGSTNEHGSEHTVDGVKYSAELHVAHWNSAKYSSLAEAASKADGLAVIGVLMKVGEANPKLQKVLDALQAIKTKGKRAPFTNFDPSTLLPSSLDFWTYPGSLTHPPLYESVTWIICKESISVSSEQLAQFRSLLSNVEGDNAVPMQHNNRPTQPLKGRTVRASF
Data set [5] can be described thus: Inhibition of soya bean 15-LOX. More on the design: species or system Glycine max.
The test system of data set [6] is A549. Nature of the data set: Induction of apoptosis in human A549 cells assessed as fold change in Bax expression at IC50 by ELISA relative to control. The data set is classed as functional.
For data set [7], the system named is A549. Nature of the data set: Induction of apoptosis in human A549 cells assessed as Bax expression at IC50 by ELISA (reference value: 42.16 +/-6.2 pg/ml). The data set is classed as functional.
Data set [8] deals with A549. Nature of the data set: Induction of apoptosis in human A549 cells assessed as Bcl2 expression at IC50 by ELISA (reference value: 9.04 +/-0.1 ng/ml). The data set is classed as functional.
Data set [9] relates to A549. Nature of the data set: Antiproliferative activity against human A549 cells assessed as inhibition of cell growth at 100 microM measured after 72 hrs by SRB assay. The data set is classed as functional. (In general: Sulforhodamine B stains cellular protein and so reports cell mass.)
Data set [10] has as its system A549. Nature of the data set: Induction of apoptosis in human A549 cells assessed as fold change in Bcl2 expression at IC50 by ELISA relative to control. The data set is classed as functional.
The test system of the next data set is HT-29. Nature of the data set: Cytotoxicity against human HT-29 cells assessed as reduction in cell viability incubated for 24 hrs by MTS assay. The data set is classed as functional, cell-based. Conditions: HT-29, 24 h.
In data set [11] the test system is A549. Nature of the data set: Antiproliferative activity against human A549 cells assessed as cell growth inhibition measured after 72 hrs by SRB assay. The data set is classed as functional, cell-based. Conditions: A549, 72 h.
The test system of data set [12] is A549. Nature of the data set: Induction of apoptosis in human A549 cells assessed as total apoptotic cells at IC50 measured after 24 hrs by Annexin V-FITC/propidium iodide staining based flow cytometry (reference value: 0.92%). The data set is classed as functional.
The subject of data set [13] is A549. Nature of the data set: Induction of apoptosis in human A549 cells assessed as early apoptotic cells at IC50 measured after 24 hrs by annexin V-FITC staining based flow cytometry (reference value: 0.63%). The data set is classed as functional.
Data set [14] has as its system HepG2. Nature of the data set: Antiproliferative activity against human HepG2 cells assessed as cell growth inhibition measured after 72 hrs by SRB assay. The following applies: HepG2, 72 h. The data set is classed as functional, cell-based.
In a further data set the target is Carbonic anhydrase 12 (Homo sapiens, UniProt O43570). Nature of the data set: Inhibition of human CA12 by stopped-flow carbon dioxide hydration assay.
Chain of Carbonic anhydrase 12 (O43570 whole entry): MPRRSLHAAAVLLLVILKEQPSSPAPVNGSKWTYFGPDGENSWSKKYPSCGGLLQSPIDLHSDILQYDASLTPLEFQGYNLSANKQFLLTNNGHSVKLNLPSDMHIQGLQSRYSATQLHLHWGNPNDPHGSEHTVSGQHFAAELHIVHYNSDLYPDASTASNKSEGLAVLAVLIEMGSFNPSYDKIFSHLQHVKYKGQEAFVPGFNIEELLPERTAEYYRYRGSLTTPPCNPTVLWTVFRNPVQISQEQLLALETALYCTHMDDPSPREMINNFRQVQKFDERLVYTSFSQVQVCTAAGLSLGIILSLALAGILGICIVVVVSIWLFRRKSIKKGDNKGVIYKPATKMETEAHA
Data set [15] has as its system HepG2. Nature of the data set: Antiproliferative activity against human HepG2 cells assessed as inhibition of cell growth at 100 microM measured after 72 hrs by SRB assay. The data set is classed as functional.
In data set [16] the test system is A549. Nature of the data set: Induction of cell cycle arrest in human A549 cells assessed as accumulation at S phase at IC50 measured after 24 hrs by propidium iodide/RNase staining based flow cytometry (reference value: 31.88%). The data set is classed as functional.
Data set [17] deals with A549. Nature of the data set: Induction of apoptosis in human A549 cells assessed as fold change in caspase-9 expression at IC50 by ELISA relative to control. The data set is classed as functional.
The target of the next data set is Carbonic anhydrase 9 (Homo sapiens, UniProt Q16790). Nature of the data set: Inhibition of human CA9 by stopped-flow carbon dioxide hydration assay.
Data set [18] relates to A549. Nature of the data set: Induction of cell cycle arrest in human A549 cells assessed as accumulation at G2/M phase at IC50 measured after 24 hrs by propidium iodide/RNase staining based flow cytometry (reference value: 9.86%). The data set is classed as functional.
The subject of the next data set is WI-38. Nature of the data set: Cytotoxicity against human WI-38 cells assessed as reduction in cell viability after 72 hrs by SRB assay. The data set is classed as cell-based. The following applies: WI-38, 72 h.
Data set [19] concerns A549. Nature of the data set: Induction of apoptosis in human A549 cells assessed as necrotic cells at IC50 measured after 24 hrs by annexin V-FITC staining based flow cytometry (reference value: 1.01%). The data set is classed as functional.
Data set [20] has as its system A549. Nature of the data set: Induction of cell cycle arrest in human A549 cells assessed as accumulation at G0/G1 phase at IC50 measured after 24 hrs by propidium iodide/RNase staining based flow cytometry (reference value: 58.26%). The data set is classed as functional.
Data set [21] relates to MCF7. Nature of the data set: Antiproliferative activity against human MCF-7 cells assessed as inhibition of cell growth at 100 microM measured after 72 hrs by SRB assay. The data set is classed as functional.
Data set [22] is described as follows: Toxicity in BALB/c mouse xenografted with human MCF7 cells assessed as body weight at 23 mg/kg, ip administered thrice a week for 28 days measured on day 28 (reference value: 29.8 gms). Conditions: in vivo, 672 h, time 28 day. The data set is classed as organism-based.
The test system of data set [23] is MCF7. Nature of the data set: Antitumor activity against human MCF7 cells xenografted in BALB/c mouse assessed as reduction in tumor volume at 23 mg/kg, ip administered thrice a week for 28 days by vernier caliper analysis. The following applies: time 28 day. The data set is classed as functional.
Data set [24] has as its system MCF7. Nature of the data set: Antiproliferative activity against human MCF-7 cells assessed as inhibition of cell growth at 100 microM measured after 72 hrs by SRB assay relative to celecoxib. Set-up: scale not given: the % may be the effect or the level left. The data set is classed as functional.
A short description of data set [25]: Toxicity in ip dosed BALB/c mouse measured for 3 days. Conditions: in vivo, time 3 day. The data set is classed as organism-based.
Data set [26] deals with MCF7. Nature of the data set: Antiproliferative activity against human MCF-7 cells assessed as cell growth inhibition measured after 72 hrs by SRB assay. The following applies: MCF7, 72 h. The data set is classed as functional, cell-based.

Usually IC50 stands for the midpoint of a concentration-inhibition curve. One may read the Ki as the equilibrium dissociation constant of an inhibitor or competing ligand from its target. The inhibition is the drop in the measured response relative to a control, in per cent. By LD50 is commonly meant the dose at which mortality reaches 50%.

Each structure is given as a SMILES string.

Take `C/C(=N\Nc1nc(-c2ccc(Cl)cc2)cs1)c1nnn(-c2ccc(S(N)(=O)=O)cc2)c1C`: the Activity in the data set on A549 [1] worked out at 19.59%; with A549 [3], 12.69 ng/mL; with A549 [4], 31.22%; in the data set with A549 [7], 329.7 pg/mL; in the data set on A549 [8], 4.95 ng/mL; in the data set with A549 [12], 28.74%. The Activity in the data set on A549 [13] is 9.15%; in the data set with A549 [16], 23.54%; with A549 [18] it was 44.85%; in the data set on A549 [19], 2.48%; in the data set on A549 [20], 31.61%. Besides, the IC50 in data set [2] came to 12.4 µM; in data set [5], 1.34 µM; in the data set with HT-29, 87.4 µM; in the data set on A549 [11] it was 28.5 µM; in the data set with HepG2 [14] it was 72.4 µM; in the data set on WI-38, 388 µM. The Ki was 0.0141 µM on Carbonic anhydrase 2, 0.252 µM on Carbonic anhydrase 1, 0.0134 µM at Carbonic anhydrase 12 and 7.89 µM at Carbonic anhydrase 9. The entries for the “fold change (FC)” value in the data set with A549 [6], in the data set with A549 [10] and in the data set with A549 [17] were 7.82, 0.51 and 10.56, respectively. Further, the figures for the inhibition at 100 µM in the data set with A549 [9], in the data set on HepG2 [15] and with MCF7 [21] were 68.1%, 59% and 37.2%, respectively.
With `Cc1c(-c2nn(-c3ccccc3)cc2/C=N/O)nnn1-c1ccc(C(=O)O)cc1`, the IC50 amounted to 12.4 µM in data set [2], 1.29 µM in [5], 379 µM with WI-38 and 3.2 µM in the data set with MCF7 [26]. The inhibition constant Ki worked out at 0.239 µM on Carbonic anhydrase 2, 4.63 µM at Carbonic anhydrase 1, 0.154 µM at Carbonic anhydrase 12 and 2.25 µM on Carbonic anhydrase 9. For the same compound, the values for the inhibition at 100 µM in the data set with A549 [9], in the data set on HepG2 [15] and in the data set with MCF7 [21] were 12.3%, 7.68% and 83.4%, respectively. Further, the Activity in data set [22] is listed as 27.3 g; in the data set on MCF7 [23], 0.45 cm3; in the data set with MCF7 [24], 80%. The compound also showed an LD50 at 72 h in [25] of 61.7 mg/kg.
